Data published in US7935815B2, “Imidazoyl pyridine compounds and salts thereof” (Eisai R&D Management Co., Ltd., priority 2007, dated 2011).

System: Aβ42 production
Experiment: Quantification of Aβ peptide in culture of neurons from rat fetus brain (Aβ ELISA)
Assay type: cell-based
Conditions: Rattus norvegicus, Neuron, 72 h, rat primary neuronal culture (embryonic day 18 Wistar rat cerebral cortex); cultured three days after addition of compound; Aβx-42 ELISA of the medium; read-out: Aβ42 production reducing effect IC50
Method: Quantification of Aβ Peptide in Culture of Neurons from Rat Fetus Brain
(1) Rat Primary Neuronal Culture
Primary neuronal cultures were prepared from the cerebral cortex of embryonic day 18 Wistar rats (Charles River Japan, Yokohama, Japan). Specifically, the embryos were aseptically removed from pregnant rats under ether anesthesia. The brain was isolated from the embryo and immersed in an ice-cold L-15 medium (Invitrogen Corp. Cat #11415-064, Carlsbad, Calif., USA, or SIGMA L1518, for example). The cerebral cortex was collected from the isolated brain under a stereoscopic microscope. The cerebral cortex fragments collected were enzymatically treated in an enzyme solution containing 0.25% trypsin (Invitrogen Corp. Cat #15050-065, Carlsbad, Calif., USA) and 0.01% DNase (Sigma D5025, St. Louis, Mo., USA) at 37° C. for 30 minutes to disperse the cells. Here, the enzymatic reaction was stopped by adding inactivated horse serum to the solution. The enzymatically treated solution was centrifuged at 1,500 rpm for five minutes to remove the supernatant. 5 to 10 ml of a medium was added to the resulting cell mass. Neurobasal medium (Invitrogen Corp. Cat #21103-049, Carlsbad, Calif., USA) supplemented with 2% B27 supplement (Invitrogen Corp. Cat #17504-044, Carlsbad, Calif., USA), 25 μM 2-mercaptoethanol (2-ME, WAKO Cat #139-06861, Osaka, Japan), 0.5 mM L-glutamine (Invitrogen Corp. Cat #25030-081, Carlsbad, Calif., USA), and Antibiotics-Antimycotics (Invitrogen Corp. Cat #15240-062, Carlsbad, Calif., USA) was used as the medium (Neurobasal/B27/2-ME). However, the above Neurobasal medium not supplemented with 2-ME (Neurobasal/B27) was used for the assay. The cells were redispersed by mild pipetting of the cell mass to which the medium was added. The cell dispersion was filtered through a 40-μm nylon mesh (Cell Strainer, Cat #35-2340, Becton Dickinson Labware, Franklin Lakes, N.J., USA) to remove the remaining cell mass, and thus a neuronal cell suspension was obtained. The neuronal cell suspension was diluted with the medium and then plated in a volume of 100 μl/well at an initial cell density of 5×10^5 cells/cm^2 in a 96-well polystyrene culture plate pre-coated with poly-L or D-lysine (Falcon Cat #35-3075, Becton Dickinson Labware, Franklin Lakes, N.J., USA coated with poly-L-lysine using the method shown below, or BIOCOAT™ cell environments Poly-D-lysine cell ware 96-well plate, Cat #35-6461, Becton Dickinson Labware, Franklin Lakes, N.J., USA). Poly-L-lysine coating was carried out as follows. 100 μg/ml of a poly-L-lysine (SIGMA P2636, St. Louis, Mo., USA) solution was aseptically prepared with a 0.15 M borate buffer (pH 8.5). 100 μl/well of the solution was added to the 96-well polystyrene culture plate and incubated at room temperature for one or more hours or at 4° C. overnight or longer. The coated 96-well polystyrene culture plate was washed with sterile water four or more times, and then dried or rinsed with, for example, sterile PBS or medium, and used for cell plating. The plated cells were cultured in the culture plate at 37° C. in 5% CO2-95% air for one day. Then, the total amount of the medium was replaced with a fresh Neurobasal™/B27/2-ME medium, and then the cells were cultured for further three days.
The drug was added to the culture plate on Day 4 of culture as follows. The total amount of the medium was removed from the wells, and 180 μl/well of Neurobasal medium not containing 2-ME and containing 2% B-27 (Neurobasal/B27) was added thereto. A solution of the test compound in dimethyl sulfoxide (hereinafter abbreviated as DMSO) was diluted with Neurobasal/B27 at 10-fold of the final concentration. 20 μl/well of the dilution was added to and sufficiently mixed with the medium. The final DMSO concentration was 1% or less. Only DMSO was added to the control group.
The cells were cultured for three days after addition of the compound, and the total amount of the medium was collected. […]

COc1nc(/C=C/c2nc3n(n2)CCC[C@@H]3c2cccc(F)c2)ccc1-n1cnc(C)c1 (single isomer, unassigned) [Example 189, (−)-8-(3-fluorophenyl)-2-{(E)-2-[6-methoxy-5-(4-methyl-1H-imidazol-1-yl)pyridin-2-yl]vinyl}-5,6,7,8-tetrahydro[1,2,4]triazolo[1,5-a]pyridine]
IC50: 43 nM

COc1nc(/C=C/c2nc3n(n2)CCC[C@H]3c2ccccc2Cl)ccc1-n1cnc(C)c1 (single isomer, unassigned) [Example 193, (−)-8-(2-chlorophenyl)-2-{(E)-2-[6-methoxy-5-(4-methyl-1H-imidazol-1-yl)pyridin-2-yl]vinyl}-5,6,7,8-tetrahydro-[1,2,4]triazolo[1,5-a]pyridine]
IC50: 80 nM

COc1nc(/C=C/c2nc3n(n2)CCC[C@H]3c2ccccc2C(F)(F)F)ccc1-n1cnc(C)c1 (single isomer, unassigned) [Example 195]
IC50: 17 nM

COc1nc(/C=C/c2nc3n(n2)CCC[C@H]3c2cccc3ccccc23)ccc1-n1cnc(C)c1 (single isomer, unassigned) [Example 199, (+)-2-{(E)-2-[6-methoxy-5-(4-methyl-1H-imidazol-1-yl)pyridin-2-yl]vinyl}-8-(naphthalen-1-yl)-5,6,7,8-tetrahydro-[1,2,4]triazolo[1,5-a]pyridine]
IC50: 23 nM

COc1nc(/C=C/c2nc3n(n2)CCC[C@H]3c2ccccc2)ccc1-n1cnc(C)c1 (single isomer, unassigned) [Example 207, (−)-2-{(E)-2-[6-methoxy-5-(4-methyl-1H-imidazol-1-yl)pyridin-2-yl]vinyl}-8-phenyl-5,6,7,8-tetrahydro-[1,2,4]triazolo[1,5-a]pyridine]
IC50: 28 nM

COc1cc(/C=C/c2nc3n(n2)CCCC3c2ccc(F)cc2)cnc1-n1cnc(C)c1 (single isomer, unassigned) [Example 212, (−)-8-(4-fluorophenyl)-2-{(E)-2-[5-methoxy-6-(4-methyl-1H-imidazol-1-yl)pyridin-3-yl]vinyl}-5,6,7,8-tetrahydro-[1,2,4]triazolo[1,5-a]pyridine]
IC50: 100 nM

COc1cc(/C=C/c2nc3n(n2)CCCC3c2ccc(F)c(F)c2)cnc1-n1cnc(C)c1 (single isomer, unassigned) [Example 218, (−)-8-(3,4-difluorophenyl)-2-{(E)-2-[5-methoxy-6-(4-methyl-1H-imidazol-1-yl)pyridin-3-yl]vinyl}-5,6,7,8-tetrahydro-[1,2,4]triazolo[1,5-a]pyridine]
IC50: 69 nM

COc1cc(/C=C/c2nc3n(n2)CCC[C@@]3(C#N)c2cc(F)c(F)c(F)c2)cnc1-n1cnc(C)c1 (single isomer, unassigned) [Example 229, (−)-2-{(E)-2-[5-methoxy-6-(4-methyl-1H-imidazol-1-yl)pyridin-3-yl]vinyl}-8-(3,4,5-trifluorophenyl)-5,6,7,8-tetrahydro-[1,2,4]triazolo[1,5-a]pyridine-8-carbonitrile]
IC50: 169 nM

COc1nc(/C=C/c2nc3n(n2)CC[C@@H]3c2cc(F)c(F)c(F)c2)ccc1-n1cnc(C)c1 (single isomer, unassigned) [Example 254, (−)-2-{(E)-2-[6-methoxy-5-(4-methyl-1H-imidazol-1-yl)pyridin-2-yl]vinyl}-7-(3,4,5-trifluorophenyl)-6,7-dihydro-5H-pyrrolo[1,2-b][1,2,4]triazole]
IC50: 50 nM

COc1nc(/C=C/c2nc3n(n2)CCOC3c2ccc(Cl)cc2)ccc1-n1cnc(C)c1 (single isomer, unassigned) [Example 262, (−)-8-(4-chlorophenyl)-2-{(E)-2-[6-methoxy-5-(4-methyl-1H-imidazol-1-yl)pyridin-2-yl]vinyl}-5,6-dihydro-8H-[1,2,4]triazolo[5,1-c][1,4]oxazine]
IC50: 74 nM

COc1nc(/C=C/c2nc3n(n2)CCC[C@H]3c2cccc(F)c2F)ccc1-n1cnc(C)c1 (single isomer, unassigned) [Example 280, (−)-8-(2,3-difluorophenyl)-2-{(E)-2-[6-methoxy-5-(4-methyl-1H-imidazol-1-yl)pyridin-2-yl]vinyl}-5,6,7,8-tetrahydro-[1,2,4]triazolo[1,5-a]pyridine]
IC50: 18 nM

COc1nc(/C=C/c2nc3n(n2)CCC[C@H]3c2cccc(C)c2F)ccc1-n1cnc(C)c1 (single isomer, unassigned) [Example 282, (−)-8-(2-fluoro-3-methylphenyl)-2-{(E)-2-[6-methoxy-5-(4-methyl-1H-imidazol-1-yl)pyridin-2-yl]vinyl}-5,6,7,8-tetrahydro-[1,2,4]triazolo[1,5-a]pyridine]
IC50: 29 nM

COc1cc(/C=C/c2nc3n(n2)CCCC3(O)c2cc(F)cc(F)c2)ccc1-n1cnc(C)c1 (single isomer, unassigned; (+)) [Example 80, (+)-8-(3,5-difluorophenyl)-2-{(E)-2-[3-methoxy-4-(4-methyl-1H-imidazol-1-yl)phenyl]vinyl}-5,6,7,8-tetrahydro[1,2,4]triazolo[1,5-a]pyridin-8-ol]
IC50: 29 nM

COc1cc(/C=C/c2nc3n(n2)CCCC3c2cccc(F)c2)ccc1-n1cnc(C)c1 (single isomer, unassigned; (-)) [Example 2, (−)-8-(3-fluorophenyl)-2-{(E)-2-[3-methoxy-4-(4-methyl-1H-imidazol-1-yl)phenyl]vinyl}-5,6,7,8-tetrahydro[1,2,4]triazolo[1,5-a]pyridine]
IC50: 28 nM

CCCCC(=O)c1ccc(C2CCCn3nc(/C=C/c4ccc(-n5cnc(C)c5)c(OC)c4)nc32)cc1 (single isomer, unassigned; (-)) [Example 3, (−)-1-{4-{2-{(E)-2-[3-methoxy-4-(4-methyl-1H-imidazol-1-yl)phenyl]vinyl}-5,6,7,8-tetrahydro[1,2,4]triazolo[1,5-a]pyridin-8-yl}phenyl}pentan-1-one]
IC50: 48 nM

COc1cc(/C=C/c2nc3n(n2)CCCC3c2ccc(C(C)C)cc2)ccc1-n1cnc(C)c1 (single isomer, unassigned; (-)) [Example 5, (−)-8-(4-isopropylphenyl)-2-{(E)-2-[3-methoxy-4-(4-methyl-1H-imidazol-1-yl)phenyl]vinyl}-5,6,7,8-tetrahydro[1,2,4]triazolo[1,5-a]pyridine]
IC50: 21 nM

COc1cc(/C=C/c2nc3n(n2)CCCC3c2ccc(SC)cc2)ccc1-n1cnc(C)c1 (single isomer, unassigned; (-)) [Example 7, (−)-2-{(E)-2-[3-methoxy-4-(4-methyl-1H-imidazol-1-yl)phenyl]vinyl}-8-(4-methylsulfanylphenyl)-5,6,7,8-tetrahydro-[1,2,4]triazolo[1,5-a]pyridine]
IC50: 30 nM

COc1cc(/C=C/c2nc3n(n2)CCCC3c2cccs2)ccc1-n1cnc(C)c1 (single isomer, unassigned; (-)) [Example 10, (−)-2-{(E)-2-[3-methoxy-4-(4-methyl-1H-imidazol-1-yl)phenyl]vinyl}-8-thiophen-2-yl-5,6,7,8-tetrahydro[1,2,4]triazolo[1,5-a]pyridine]
IC50: 33 nM

COc1cc(/C=C/c2nc3n(n2)CCCC3c2ccc(Br)cc2)ccc1-n1cnc(C)c1 (single isomer, unassigned; (-)) [Example 20, (−)-8-(4-bromophenyl)-2-{(E)-2-[3-methoxy-4-(4-methyl-1H-imidazol-1-yl)phenyl]vinyl}-5,6,7,8-tetrahydro-[1,2,4]triazolo[1,5-a]pyridine]
IC50: 30 nM
